Read-outs that look alike come from different tables or passages of the source.
What was measured:
[1] = molecular target: T1, various enzymes (Homo sapiens, UniProt Q99640); conditions: PKMYT1; 1 uM
T1 sequence (Q99640 1-499): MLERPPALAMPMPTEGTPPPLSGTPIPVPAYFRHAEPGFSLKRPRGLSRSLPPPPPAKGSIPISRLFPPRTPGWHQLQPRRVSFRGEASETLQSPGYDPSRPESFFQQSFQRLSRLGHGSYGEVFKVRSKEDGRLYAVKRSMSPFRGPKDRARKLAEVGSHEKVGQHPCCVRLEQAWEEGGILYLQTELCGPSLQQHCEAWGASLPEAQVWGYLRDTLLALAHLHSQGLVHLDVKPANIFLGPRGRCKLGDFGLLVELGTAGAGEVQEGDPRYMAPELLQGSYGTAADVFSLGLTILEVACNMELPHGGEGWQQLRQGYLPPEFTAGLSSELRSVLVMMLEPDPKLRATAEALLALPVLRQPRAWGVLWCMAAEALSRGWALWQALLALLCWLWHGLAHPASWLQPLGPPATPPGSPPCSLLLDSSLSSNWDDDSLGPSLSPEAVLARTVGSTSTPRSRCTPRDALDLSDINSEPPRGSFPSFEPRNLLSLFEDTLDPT
Protocol: (§1) Ambit profiling from Eurofins (formerly Discoverx) was conducted in accordance with the manufacturer's instructions.

[2] = molecular target: various enzymes (Homo sapiens, UniProt P00533, L858R/T790M)
Protocol: as §1

[3] = molecular target: various enzymes (Homo sapiens, UniProt P41240); conditions: CSK; 1 uM
Chain of various enzymes (Homo sapiens, UniProt P41240) (P41240 whole entry): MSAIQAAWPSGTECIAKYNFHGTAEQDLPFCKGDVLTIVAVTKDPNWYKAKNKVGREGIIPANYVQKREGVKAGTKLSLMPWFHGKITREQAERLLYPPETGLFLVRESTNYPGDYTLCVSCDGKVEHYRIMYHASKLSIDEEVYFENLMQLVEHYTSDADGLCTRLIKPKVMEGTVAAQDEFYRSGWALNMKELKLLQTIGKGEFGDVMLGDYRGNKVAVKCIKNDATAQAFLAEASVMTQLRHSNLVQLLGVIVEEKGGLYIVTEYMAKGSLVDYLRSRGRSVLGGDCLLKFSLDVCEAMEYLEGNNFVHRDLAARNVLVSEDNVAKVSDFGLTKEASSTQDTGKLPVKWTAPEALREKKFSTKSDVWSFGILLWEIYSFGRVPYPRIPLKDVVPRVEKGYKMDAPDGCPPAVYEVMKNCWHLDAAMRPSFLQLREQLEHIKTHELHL
Protocol: as §1

[4] = molecular target: various enzymes (Homo sapiens, UniProt P19525); conditions: PRKR; 1 uM
Chain of various enzymes (Homo sapiens, UniProt P19525) (P19525 whole entry): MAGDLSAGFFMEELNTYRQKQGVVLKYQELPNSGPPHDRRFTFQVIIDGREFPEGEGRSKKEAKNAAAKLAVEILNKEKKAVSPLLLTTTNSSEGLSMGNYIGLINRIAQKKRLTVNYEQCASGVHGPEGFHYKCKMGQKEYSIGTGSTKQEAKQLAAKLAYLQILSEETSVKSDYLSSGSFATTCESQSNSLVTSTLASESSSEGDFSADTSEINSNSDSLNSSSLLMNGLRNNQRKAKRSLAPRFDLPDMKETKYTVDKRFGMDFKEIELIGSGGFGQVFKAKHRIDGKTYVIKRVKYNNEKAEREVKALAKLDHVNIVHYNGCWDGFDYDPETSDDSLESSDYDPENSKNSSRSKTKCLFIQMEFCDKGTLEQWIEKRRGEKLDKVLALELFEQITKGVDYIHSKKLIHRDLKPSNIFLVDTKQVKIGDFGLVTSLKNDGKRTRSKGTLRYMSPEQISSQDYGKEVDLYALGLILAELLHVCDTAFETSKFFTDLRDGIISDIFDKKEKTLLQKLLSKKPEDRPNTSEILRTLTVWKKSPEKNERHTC
Protocol: as §1

[5] = molecular target: various enzymes (Homo sapiens, UniProt P24941); conditions: CDK2; 1 uM
Protocol: as §1

[6] = molecular target: various enzymes (Homo sapiens, UniProt P00533, L858R)
Protocol: as §1

[7] = molecular target: T2, various enzymes (Homo sapiens, UniProt P29323); conditions: EPHB2; 1 uM
T2 sequence (P29323 19-1055): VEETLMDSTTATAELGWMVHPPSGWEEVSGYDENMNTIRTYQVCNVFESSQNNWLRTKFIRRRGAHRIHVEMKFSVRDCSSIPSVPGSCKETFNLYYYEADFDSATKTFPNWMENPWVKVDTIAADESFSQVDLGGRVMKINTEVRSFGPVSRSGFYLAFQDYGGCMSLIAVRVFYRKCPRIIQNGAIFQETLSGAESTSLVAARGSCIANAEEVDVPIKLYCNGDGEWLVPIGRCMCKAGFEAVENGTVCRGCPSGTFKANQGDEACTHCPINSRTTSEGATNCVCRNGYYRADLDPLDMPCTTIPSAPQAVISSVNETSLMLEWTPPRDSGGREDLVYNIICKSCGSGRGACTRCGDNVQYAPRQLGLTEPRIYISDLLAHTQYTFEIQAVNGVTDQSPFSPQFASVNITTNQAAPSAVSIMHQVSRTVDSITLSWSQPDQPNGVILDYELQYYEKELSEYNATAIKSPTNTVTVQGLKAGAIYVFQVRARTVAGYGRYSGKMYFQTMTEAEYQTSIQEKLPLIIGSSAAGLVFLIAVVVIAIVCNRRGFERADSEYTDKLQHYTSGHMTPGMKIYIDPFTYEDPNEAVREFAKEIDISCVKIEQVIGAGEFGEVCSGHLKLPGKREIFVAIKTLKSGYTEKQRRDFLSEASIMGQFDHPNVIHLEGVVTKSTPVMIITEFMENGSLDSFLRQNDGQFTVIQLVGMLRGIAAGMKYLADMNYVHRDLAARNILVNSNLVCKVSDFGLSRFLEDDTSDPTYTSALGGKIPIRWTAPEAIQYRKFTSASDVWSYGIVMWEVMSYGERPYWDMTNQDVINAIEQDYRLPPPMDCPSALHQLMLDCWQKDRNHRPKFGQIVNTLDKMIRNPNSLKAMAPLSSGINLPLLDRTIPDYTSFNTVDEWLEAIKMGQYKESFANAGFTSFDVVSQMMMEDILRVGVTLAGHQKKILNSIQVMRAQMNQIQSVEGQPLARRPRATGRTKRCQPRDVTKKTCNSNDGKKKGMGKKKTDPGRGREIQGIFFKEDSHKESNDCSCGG
Protocol: as §1

[8] = molecular target: various enzymes (Homo sapiens, UniProt Q06187); conditions: BTK; 1 uM
Chain of various enzymes (Homo sapiens, UniProt Q06187) (Q06187 whole entry): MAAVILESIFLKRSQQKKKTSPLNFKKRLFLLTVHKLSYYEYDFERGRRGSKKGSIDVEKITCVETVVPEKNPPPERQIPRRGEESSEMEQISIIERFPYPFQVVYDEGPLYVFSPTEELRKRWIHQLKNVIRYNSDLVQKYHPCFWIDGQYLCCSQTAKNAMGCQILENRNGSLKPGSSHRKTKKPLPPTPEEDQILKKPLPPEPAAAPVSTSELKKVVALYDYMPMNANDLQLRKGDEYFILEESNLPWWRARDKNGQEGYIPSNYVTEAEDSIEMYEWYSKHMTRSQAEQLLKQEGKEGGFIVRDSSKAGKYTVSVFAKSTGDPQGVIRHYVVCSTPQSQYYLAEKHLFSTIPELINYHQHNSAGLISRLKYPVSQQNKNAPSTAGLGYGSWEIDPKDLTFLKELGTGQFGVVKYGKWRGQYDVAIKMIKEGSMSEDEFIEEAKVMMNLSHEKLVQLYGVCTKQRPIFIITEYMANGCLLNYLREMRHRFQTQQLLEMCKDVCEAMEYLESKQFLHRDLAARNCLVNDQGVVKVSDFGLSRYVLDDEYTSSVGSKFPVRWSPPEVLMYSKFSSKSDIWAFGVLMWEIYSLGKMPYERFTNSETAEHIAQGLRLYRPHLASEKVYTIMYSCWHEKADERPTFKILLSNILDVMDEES
Protocol: as §1

[9] = molecular target: various enzymes (Homo sapiens, UniProt O94804); conditions: LOK; 1 uM
Chain of various enzymes (Homo sapiens, UniProt O94804) (O94804 whole entry): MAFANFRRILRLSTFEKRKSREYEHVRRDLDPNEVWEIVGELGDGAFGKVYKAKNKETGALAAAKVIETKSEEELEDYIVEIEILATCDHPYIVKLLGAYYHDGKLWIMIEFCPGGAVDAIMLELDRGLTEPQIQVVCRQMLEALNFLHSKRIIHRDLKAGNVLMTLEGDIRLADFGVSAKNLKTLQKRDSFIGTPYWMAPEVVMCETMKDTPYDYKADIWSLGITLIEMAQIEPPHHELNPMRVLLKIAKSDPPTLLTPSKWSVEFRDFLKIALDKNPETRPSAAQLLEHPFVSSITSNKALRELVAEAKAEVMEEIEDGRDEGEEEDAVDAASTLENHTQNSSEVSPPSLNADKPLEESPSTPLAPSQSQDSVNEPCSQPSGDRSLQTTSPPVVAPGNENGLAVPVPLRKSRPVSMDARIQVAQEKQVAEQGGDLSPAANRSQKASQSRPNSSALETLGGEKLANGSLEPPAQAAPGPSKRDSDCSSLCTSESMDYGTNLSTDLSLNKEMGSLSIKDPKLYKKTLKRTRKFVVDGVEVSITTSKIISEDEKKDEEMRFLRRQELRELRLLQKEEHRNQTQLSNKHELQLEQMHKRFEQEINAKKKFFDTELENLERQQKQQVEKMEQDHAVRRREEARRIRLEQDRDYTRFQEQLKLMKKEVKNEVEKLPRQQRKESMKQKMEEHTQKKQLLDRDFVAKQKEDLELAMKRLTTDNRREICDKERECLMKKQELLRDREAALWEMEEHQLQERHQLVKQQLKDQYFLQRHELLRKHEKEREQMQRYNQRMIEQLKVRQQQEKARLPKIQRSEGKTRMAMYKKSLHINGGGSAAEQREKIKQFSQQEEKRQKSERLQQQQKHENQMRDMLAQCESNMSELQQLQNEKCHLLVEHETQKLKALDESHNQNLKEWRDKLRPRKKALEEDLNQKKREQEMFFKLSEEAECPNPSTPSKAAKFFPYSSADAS
Protocol: as §1

[10] = molecular target: T3, various enzymes (Homo sapiens, UniProt Q08881); conditions: ITK; 1 uM
T3 sequence (Q08881 1-620): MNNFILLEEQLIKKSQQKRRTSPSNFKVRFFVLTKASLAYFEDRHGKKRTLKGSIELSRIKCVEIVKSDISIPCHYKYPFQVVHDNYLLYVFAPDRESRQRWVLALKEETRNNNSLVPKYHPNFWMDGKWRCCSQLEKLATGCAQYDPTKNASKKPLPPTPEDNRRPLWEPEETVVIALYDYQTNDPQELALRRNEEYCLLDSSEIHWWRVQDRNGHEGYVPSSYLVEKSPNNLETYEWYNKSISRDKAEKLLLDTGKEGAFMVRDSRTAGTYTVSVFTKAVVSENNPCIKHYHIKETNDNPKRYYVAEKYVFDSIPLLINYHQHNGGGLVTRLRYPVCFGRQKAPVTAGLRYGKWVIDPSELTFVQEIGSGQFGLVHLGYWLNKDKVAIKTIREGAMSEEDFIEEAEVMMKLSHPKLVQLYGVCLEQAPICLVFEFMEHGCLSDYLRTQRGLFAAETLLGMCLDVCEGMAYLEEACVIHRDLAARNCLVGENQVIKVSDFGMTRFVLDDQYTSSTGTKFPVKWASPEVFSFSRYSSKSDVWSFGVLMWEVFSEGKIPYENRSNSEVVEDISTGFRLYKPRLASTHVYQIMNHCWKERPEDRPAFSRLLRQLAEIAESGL
Protocol: as §1

[11] = molecular target: various enzymes (Homo sapiens, UniProt O60331); conditions: PIP5K1C; 1 uM
Chain of various enzymes (Homo sapiens, UniProt O60331) (O60331 whole entry): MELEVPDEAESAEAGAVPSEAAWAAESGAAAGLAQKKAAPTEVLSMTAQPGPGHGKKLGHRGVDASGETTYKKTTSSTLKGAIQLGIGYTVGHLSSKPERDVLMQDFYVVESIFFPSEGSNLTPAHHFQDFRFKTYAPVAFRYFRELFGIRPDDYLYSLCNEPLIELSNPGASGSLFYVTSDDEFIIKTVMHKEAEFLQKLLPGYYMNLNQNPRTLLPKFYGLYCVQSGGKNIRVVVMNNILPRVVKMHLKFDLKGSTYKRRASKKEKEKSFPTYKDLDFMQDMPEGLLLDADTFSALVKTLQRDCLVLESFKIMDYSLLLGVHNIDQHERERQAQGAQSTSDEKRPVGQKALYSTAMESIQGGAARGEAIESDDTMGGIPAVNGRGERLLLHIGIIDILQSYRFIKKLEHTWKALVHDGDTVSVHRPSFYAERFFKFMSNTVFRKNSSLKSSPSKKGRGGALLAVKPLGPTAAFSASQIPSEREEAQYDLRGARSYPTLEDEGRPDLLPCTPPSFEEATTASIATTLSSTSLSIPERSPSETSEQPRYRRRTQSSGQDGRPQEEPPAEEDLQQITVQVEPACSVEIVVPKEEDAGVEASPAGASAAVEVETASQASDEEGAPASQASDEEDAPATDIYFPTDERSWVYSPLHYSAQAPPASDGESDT
Protocol: as §1

[12] = molecular target: various enzymes (Homo sapiens, UniProt P23458); conditions: 1 uM
Chain of various enzymes (Homo sapiens, UniProt P23458) (P23458 whole entry): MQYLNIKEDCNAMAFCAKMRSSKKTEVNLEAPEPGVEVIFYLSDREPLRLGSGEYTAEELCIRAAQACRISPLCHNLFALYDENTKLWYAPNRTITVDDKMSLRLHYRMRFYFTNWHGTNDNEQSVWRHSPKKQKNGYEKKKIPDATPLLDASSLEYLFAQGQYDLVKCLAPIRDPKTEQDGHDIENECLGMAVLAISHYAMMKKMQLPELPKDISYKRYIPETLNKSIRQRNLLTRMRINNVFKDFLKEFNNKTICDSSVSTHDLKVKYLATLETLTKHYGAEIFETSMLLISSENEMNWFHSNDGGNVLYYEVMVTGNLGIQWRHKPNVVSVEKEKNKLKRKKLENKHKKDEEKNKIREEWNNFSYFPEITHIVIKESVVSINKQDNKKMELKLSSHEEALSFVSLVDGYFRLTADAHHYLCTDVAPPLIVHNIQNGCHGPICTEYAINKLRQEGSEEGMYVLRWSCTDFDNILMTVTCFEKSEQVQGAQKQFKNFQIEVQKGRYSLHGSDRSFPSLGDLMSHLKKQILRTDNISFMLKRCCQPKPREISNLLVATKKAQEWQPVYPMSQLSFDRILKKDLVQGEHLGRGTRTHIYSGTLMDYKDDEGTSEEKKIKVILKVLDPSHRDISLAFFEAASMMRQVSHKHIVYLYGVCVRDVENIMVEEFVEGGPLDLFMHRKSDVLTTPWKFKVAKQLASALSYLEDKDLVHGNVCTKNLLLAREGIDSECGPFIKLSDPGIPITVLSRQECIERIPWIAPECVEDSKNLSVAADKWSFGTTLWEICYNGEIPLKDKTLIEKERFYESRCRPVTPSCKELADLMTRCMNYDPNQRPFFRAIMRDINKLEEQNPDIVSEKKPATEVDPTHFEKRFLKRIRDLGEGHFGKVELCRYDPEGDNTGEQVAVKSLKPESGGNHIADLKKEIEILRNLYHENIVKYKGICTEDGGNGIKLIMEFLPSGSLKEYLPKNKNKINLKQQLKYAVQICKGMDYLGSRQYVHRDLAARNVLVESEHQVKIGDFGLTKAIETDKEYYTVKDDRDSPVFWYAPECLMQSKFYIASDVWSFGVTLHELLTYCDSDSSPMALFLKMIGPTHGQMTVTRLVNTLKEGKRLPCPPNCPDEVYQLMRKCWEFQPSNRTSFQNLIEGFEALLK
Protocol: as §1

[13] = molecular target: various enzymes (Homo sapiens, UniProt Q14004); conditions: CDC2L5; 1 uM
Protocol: as §1

Compound `CN1Cc2nn(C)cc2-c2cnc3[nH]cc(c3c2)-c2cnn(c2)CCCC1=O` [Compound 41, (Z)-31,5-dimethyl-11H,21H,31H-5-aza-2(3,5)-pyrrolo[2,3-b]pyridina-1(4,1),3(4,3)-dipyrazolacyclononaphan-6-one] has an Ambit profiling [1] of 64, an Ambit profiling ([2]; EGFR(L858R, T790M), 1 uM) of 14 and an Ambit profiling [3] of 63. It also gave an Ambit profiling [4] of 9.2, an Ambit profiling [5] of 55 and an Ambit profiling ([6]; EGFR(L856R), 1 uM) of 87. It also gave an Ambit profiling [7] of 80, an Ambit profiling [8] of 61 and an Ambit profiling [9] of 74. The Ambit profiling [10] was 65, the Ambit profiling [11] was 20 and the Ambit profiling ([12]; JAK1(JH1domain-catalytic)) was 18. It also gave an Ambit profiling ([12]; JAK1(JH2domain-pseudokinase)) of 9.1 and an Ambit profiling [13] of 100.

`CN1Cc2nn(C)c(C#N)c2-c2cnc3[nH]cc(c3c2)-c2cn(nc2C(F)(F)F)CCCC1=O` [Compound 48, (Z)-31,5-dimethyl-6-oxo-13-(trifluoromethyl)-11H,21H,31H-5-aza-2(3,5)-pyrrolo[2,3-b]pyridina-1(4,1),3(4,3)-dipyrazolacyclononaphane-35-carbonitrile] was tested, and the Ambit profiling [1] was 77, the Ambit profiling [2] was 50 and the Ambit profiling [3] was 95. The Ambit profiling [4] was 100, the Ambit profiling [5] was 91 and the Ambit profiling [6] was 63. The Ambit profiling [7] was 99, the Ambit profiling [8] was 97 and the Ambit profiling [9] was 52. It also gave an Ambit profiling [10] of 100, an Ambit profiling [11] of 38 and an Ambit profiling ([12]; JAK1(JH1domain-catalytic)) of 100. It also gave an Ambit profiling ([12]; JAK1(JH2domain-pseudokinase)) of 100 and an Ambit profiling [13] of 87.

— patent US12157741B2, “Macrocyclic inhibitors of DYRK1A” (DANA-FARBER CANCER INSTITUTE, INC., priority 2018, dated 2024)
